The results in this text go back to patent publication US10160750B2, “Diamide macrocycles as factor XIa inhibitors” (BRISTOL-MYERS SQUIBB COMPANY, priority 2015, dated 2018).

Structures are written as SMILES.

Test [1] deals with T1, purified human Factor XIa (Homo sapiens, UniProt P03951).
T1 construct: purchased Haematologic Technologies
Briefly: Factor XIa enzyme inhibition assay (chromogenic substrate S-2366). The conditions noted are these: substrate S-2366, pH 7.4. Format: biochemical. Here is the method: (§1) The effectiveness of compounds of the present invention as inhibitors of the coagulation Factors XIa, VIIa, IXa, Xa, XIIa, plasma kallikrein or thrombin, can be determined using a relevant purified serine protease, respectively, and an appropriate synthetic substrate. The rate of hydrolysis of the chromogenic or fluorogenic substrate by the relevant serine protease was measured both in the absence and presence of compounds of the present invention. […] A decrease in the rate of absorbance or fluorescence change in the presence of inhibitor is indicative of enzyme inhibition. Such methods are known to one skilled in the art. The results of this assay are expressed as the inhibitory constant, Ki.
Factor XIa determinations were made in 50 mM HEPES buffer at pH 7.4 containing 145 mM NaCl, 5 mM KCl, and 0.1% PEG 8000 (polyethylene glycol; JT Baker or Fisher Scientific). Determinations were made using purified human Factor XIa at a final concentration of 25-200 pM (Haematologic Technologies) and the synthetic substrate S-2366 (pyroGlu-Pro-Arg-pNA; Chromogenix or AnaSpec) at a concentration of 0.0002-0.001 M.
(§2) The Michaelis constant, Km, for substrate hydrolysis by each protease, was determined at 25° C. or 37° C. in the absence of inhibitor. Values of Ki were determined by allowing the protease to react with the substrate in the presence of the inhibitor. Reactions were allowed to go for periods of 20-180 minutes (depending on the protease) and the velocities (rate of absorbance or fluorescence change versus time) were measured. The following relationships were used to calculate Ki values: (Vmax*S)/(Km+S); (vo−vs)/vs=I/(Ki*(1+S/Km)) for a competitive inhibitor with one binding site; or vs/vo=A+((B−A)/(1+(IC50/(I))^n)); and Ki=IC50/(1+S/Km) for a competitive inhibitor where: […]

For test [2], the target named is T2, purified human plasma kallikrein (Homo sapiens, UniProt P03952).
T2 construct: Plasma prekallikrein is a zymogen of a trypsin-like serine protease; purchased Enzyme Research Laboratories
T2 sequence (P03952 391-638 limits assumed): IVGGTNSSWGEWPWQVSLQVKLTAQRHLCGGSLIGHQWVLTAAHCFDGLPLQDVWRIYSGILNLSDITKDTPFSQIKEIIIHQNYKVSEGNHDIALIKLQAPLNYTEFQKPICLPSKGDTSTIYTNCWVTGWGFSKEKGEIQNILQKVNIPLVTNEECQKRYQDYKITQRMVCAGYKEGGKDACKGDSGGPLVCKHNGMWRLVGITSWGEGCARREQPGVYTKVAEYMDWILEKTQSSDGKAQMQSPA
T2 sequence (P03952 20-390 partner limits assumed): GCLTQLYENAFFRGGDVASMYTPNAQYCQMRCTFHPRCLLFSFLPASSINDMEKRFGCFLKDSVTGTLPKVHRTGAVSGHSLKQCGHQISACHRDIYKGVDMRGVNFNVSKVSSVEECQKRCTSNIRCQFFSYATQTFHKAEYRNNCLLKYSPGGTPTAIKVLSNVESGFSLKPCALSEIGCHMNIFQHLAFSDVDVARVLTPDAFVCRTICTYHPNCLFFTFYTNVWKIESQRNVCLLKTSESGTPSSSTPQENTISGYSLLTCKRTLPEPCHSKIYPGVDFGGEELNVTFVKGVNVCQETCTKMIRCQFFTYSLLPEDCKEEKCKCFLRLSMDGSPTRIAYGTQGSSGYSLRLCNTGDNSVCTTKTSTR
Put plainly: Plasma kallikrein enzyme inhibition assay (chromogenic substrate S-2302). Format: biochemical. The conditions noted are these: substrate S-2302, pH 7.5. Here is the method:
as §1
Plasma kallikrein determinations were made in 0.1 M sodium phosphate buffer at a pH of 7.5 containing 0.1-0.2 M sodium chloride and 0.5% PEG 8000. Determinations were made using purified human plasma kallikrein (Enzyme Research Laboratories) at a final assay concentration of 200 pM and the synthetic substrate S-2302 (H-(D)-Pro-Phe-Arg-pNA; Chromogenix) at a concentration of 0.00008-0.0004 M.
as §2

T1 sequence (P03951 388-625 limits assumed): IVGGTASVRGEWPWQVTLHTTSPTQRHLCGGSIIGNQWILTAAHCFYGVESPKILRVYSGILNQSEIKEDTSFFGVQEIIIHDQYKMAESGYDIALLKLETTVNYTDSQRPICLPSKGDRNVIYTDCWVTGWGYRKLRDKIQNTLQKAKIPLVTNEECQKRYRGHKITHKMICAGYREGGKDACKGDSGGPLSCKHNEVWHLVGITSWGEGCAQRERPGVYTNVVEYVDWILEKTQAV
T1 sequence (P03951 19-387 partner limits assumed): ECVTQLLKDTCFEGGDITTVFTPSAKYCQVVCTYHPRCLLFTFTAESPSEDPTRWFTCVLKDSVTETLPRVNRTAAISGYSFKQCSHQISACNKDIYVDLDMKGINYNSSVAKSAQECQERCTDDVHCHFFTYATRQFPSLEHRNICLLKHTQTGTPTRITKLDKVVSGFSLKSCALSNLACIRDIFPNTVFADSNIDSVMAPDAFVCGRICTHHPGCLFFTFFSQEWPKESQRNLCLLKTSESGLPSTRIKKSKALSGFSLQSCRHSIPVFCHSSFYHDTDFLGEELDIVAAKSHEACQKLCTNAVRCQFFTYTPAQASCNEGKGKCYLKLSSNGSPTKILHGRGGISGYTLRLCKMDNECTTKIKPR

Regarding `CC1NC(=O)[C@@H](N2CCC(c3cc(Cl)ccc3-n3cc(C(F)(F)F)nn3)=CC2=O)CCC[C@@H](C)C(=O)Nc2ccccc21` (single isomer, unassigned; diastereomer a) [Example 21], the results for the inhibition constant Ki in test [1] and in test [2] were 0.093 µM and 2.83 µM, respectively.

On to `CC1NC(=O)[C@@H](N2CCC(c3cc(Cl)ccc3-n3cc(C(F)(F)F)nn3)=CC2=O)CCC[C@@H](C)C(=O)Nc2ccccc21` (single isomer, unassigned; diastereomer b) [Example 22], for which the Ki in test [1] is 3.68 µM; in test [2], > 13 µM.

Consider `C[C@@H]1CCC[C@H](n2cnc(-c3cc(Cl)ccc3-n3cc(C(F)(F)F)nn3)cc2=O)C(=O)NCc2ccccc2NC1=O` [Example 11, (3R,7S)-7-(4-(5-Chloro-2-(4-(trifluoromethyl)-1H-1,2,3-triazol-1-yl)phenyl)-6-oxopyrimidin-1(6H)-yl)-3-methyl-4,5,6,7,9,10-hexahydrobenzo[b][1,5]-diazacyclododecine-2,8(1H, 3H)-dione], for which the Ki in test [1] came to 0.0187 µM; in test [2], 3.38 µM.

Consider `C[C@@H]1CCC[C@H](n2cnc(-c3c(-n4cc(Cl)nn4)ccc(Cl)c3F)cc2=O)C(=O)NCc2ccccc2NC1=O` [Example 12, (3R,7S)-7-(4-(3-Chloro-6-(4-chloro-1H-1,2,3-triazol-1-yl)-2-fluorophenyl)-6-oxopyrimidin-1(6H)-yl)-3-methyl-4,5,6,7,9,10-hexahydrobenzo[b][1,5]diazacyclo-dodecine-2,8(1H,3H)-dione], for which the Ki turned out to be 0.002 µM in test [1] and 0.179 µM in test [2].

`C[C@@H]1CCC[C@H](n2cnc(-c3cc(Cl)ccc3-n3cc(Cl)nn3)cc2=O)C(=O)NCc2ccccc2NC1=O` [Example 13, (3R,7S)-7-(4-(5-Chloro-2-(4-chloro-1H-1,2,3-triazol-1-yl)phenyl)-6-oxopyrimidin-1(6H)-yl)-3-methyl-4,5,6,7,9,10-hexahydrobenzo[b][1,5]diazacyclo-dodecine-2,8(1H,3H)-dione]: the Ki was 0.0085 µM in test [1] and 1.23 µM in test [2].

As to `C[C@@H]1CCC[C@H](n2cnc(-c3c(-n4cc(C(F)(F)F)nn4)ccc(Cl)c3F)cc2=O)C(=O)NCc2ccccc2NC1=O` [Example 14, (3R,7S)-7-(4-(3-Chloro-2-fluoro-6-(4-(trifluoromethyl)-1H-1,2,3-triazol-1-yl)phenyl)-6-oxopyrimidin-1(6H)-yl)-3-methyl-4,5,6,7,9,10-hexahydrobenzo[b][1,5]-diazacyclododecine-2,8(1H,3H)-dione], the inhibition constant (Ki) in test [1] worked out at 0.0043 µM; in test [2], 0.733 µM.

For `C[C@@H]1CCC[C@H](n2cnc(-c3cc(Cl)ccc3-n3cc(C(F)F)nn3)cc2=O)C(=O)NCc2ccccc2NC1=O` [Example 15, (3R,7S)-7-(4-(5-Chloro-2-(4-(difluoromethyl)-1H-1,2,3-triazol-1-yl)phenyl)-6-oxopyrimidin-1(6H)-yl)-3-methyl-4,5,6,7,9,10-hexahydrobenzo[b][1,5]diazacyclo-dodecine-2,8(1H, 3H)-dione], the Ki in test [1] was 0.0348 µM; in test [2], 3.36 µM.

On to `C[C@@H]1CCC[C@H](N2CCC(c3cc(Cl)ccc3-n3cc(Cl)nn3)=CC2=O)C(=O)NCc2ccccc2NC1=O` [Example 16, (3R,7S)-7-(4-(5-Chloro-2-(4-chloro-H-1,2,3-triazol-1-yl)phenyl)-2-oxo-5,6-dihydropyridin-1(2H)-yl)-3-methyl-4,5,6,7,9,10-hexahydrobenzo[b][1,5]diazacyclododecine-2,8(1H, 3H)-dione], for which the inhibition constant (Ki) in test [1] came to 0.004 µM; in test [2], 0.0607 µM.

Take `C[C@@H]1CCC[C@H](N2CCC(c3c(F)ccc(Cl)c3F)=CC2=O)C(=O)NCc2ccccc2NC1=O` [Example 17, (3R,7S)-7-(4-(3-Chloro-2,6-difluorophenyl)-2-oxo-56-dihydropyridin-1(2H)-yl)-3-methy 1-4,5,6,7,9,10-hexahydrobenzo[b][1,5]diazacyclododecine-2,8(1H,3H)-dione]: the Ki in test [1] was 0.112 µM; in test [2] it was 0.558 µM.

With `C[C@@H]1CCC[C@H](N2CCC(c3cc(Cl)ccc3-n3cc(C(F)(F)F)nn3)=CC2=O)C(=O)NCc2ccccc2NC1=O` [Example 18], the results for the Ki in test [1] and in test [2] were 0.0031 µM and 0.103 µM, respectively.

With `C[C@@H]1CCC[C@H](n2ccc(-c3cc(Cl)ccc3-n3cc(Cl)nn3)cc2=O)C(=O)NCc2ccccc2NC1=O` [Example 18], the results for the Ki in test [1] and in test [2] were 0.0101 µM and 0.259 µM, respectively.

In the case of `C[C@@H]1CCC[C@H](n2cnc(-c3cc(Cl)ccc3-n3cc(C(F)(F)F)nn3)cc2=O)C(=O)NCc2cc(F)ccc2NC1=O` [Example 19, (3R,7S)-7-(4-(5-Chloro-2-(4-(trifluoromethyl)-1H-1,2,3-triazol-1-yl)phenyl)-6-oxopyrimidin-1(6H)-yl)-12-fluoro-3-methyl-4,5,6,7,9,10-hexahydrobenzo[b][1,5]diazacyclododecine-2,8(1H,3H)-dione], the inhibitory constant (Ki) in test [1] is 0.0187 µM; in test [2], ≥ 13 µM.

For the compound `C[C@@H]1CCC[C@H](N2CCC(c3cc(Cl)ccc3-n3cc(C(F)(F)F)nn3)=CC2=O)C(=O)NCc2cc(F)ccc2NC1=O` [Example 20, (3R,7S)-7-(4-(5-Chloro-2-(4-(trifluoromethyl)-1H-1,2,3-triazol-1-yl)phenyl)-2-oxo-5,6-dihydropyridin-1(2H)-yl)-12-fluoro-3-methyl-4,5,6,7,9,10-hexahydrobenzo[b][1,5]diazacyclododecine-2,8(1H,3H)-dione], the inhibition constant (Ki) came to 0.007 µM in test [1] and 0.268 µM in test [2].

Regarding `C[C@@H]1CCC[C@H](NC(=O)c2cn(-c3cccc(Cl)c3F)nn2)C(=O)NCc2ccccc2NC1=O` [Example 23, 1-(3-chloro-2-fluorophenyl)-N-((3R,7S)-3-methyl-2,8-dioxo-1,2,3,4,5,6,7,8,9,10-decahydrobenzo[b][1,5]diazacyclododecin-7-yl)-1H-1,2,3-triazole-4-carboxamide], the figures for the inhibition constant Ki in test [1] and in test [2] were 8.73 µM and ≥ 13 µM, respectively.

As to `Cc1c(C(=O)N[C@H]2CCC[C@@H](C)C(=O)Nc3ccccc3CNC2=O)ncn1-c1cccc(Cl)c1F` [Example 24, 1-(3-chloro-2-fluorophenyl)-5-methyl-N-((3R,7S)-3-methyl-2,8-dioxo-1,2,3,4,5,6,7,8,9,10-decahydrobenzo[b][1,5]diazacyclododecin-7-yl)-1H-imidazole-4-carboxamide], the figures for the Ki in test [1] and in test [2] were 7.41 µM and 4.36 µM, respectively.

As to `O=C1CCCCC[C@H](NC(=O)c2cn(-c3cccc(Cl)c3F)nn2)C(=O)Nc2ccccc2N1` [Example 25, (S)-1-(3-chloro-2-fluorophenyl)-N-(2,9-dioxo-1,2,3,4,5,6,7,8,9,10-decahydrobenzo[b][1,4]diazacyclododecin-3-yl)-1H-1,2,3-triazole-4-carboxamide], the inhibition constant Ki in test [1] was 6 µM; in test [2] it was > 13 µM.

With `Cc1c(C(=O)N[C@H]2CCCCCC(=O)Nc3cc(C(=O)O)ccc3NC2=O)cnn1-c1cccc(Cl)c1F` [Example 26, (S)-3-(1-(3-chloro-2-fluorophenyl)-5-methyl-1H-pyrazole-4-carboxamido)-2,9-dioxo-1,2,3,4,5,6,7,8,9,10-decahydrobenzo[b][1,4]diazacyclododecine-12-carboxylic acid], the inhibitory constant (Ki) in test [1] amounted to 1.74 µM; in test [2], 0.765 µM.

On to `COC(=O)c1ccc2c(c1)NC(=O)CCCCC[C@H](n1cnc(-c3cc(Cl)ccc3-n3cc(C(F)(F)F)nn3)cc1=O)C(=O)N2` [Example 27, methyl (S)-3-(4-(5-chloro-2-(4-(trifluoromethyl)-1H-1,2,3-triazol-1-yl)phenyl)-6-oxopyrimidin-1(6H)-yl)-2,9-dioxo-1,2,3,4,5,6,7,8,9,10-decahydrobenzo[b][1,4]diazacyclododecine-12-carboxylate], for which the inhibitory constant (Ki) in test [1] was 0.561 µM; in test [2], > 13 µM.

In the case of `O=C1CCCCC[C@H](n2cnc(-c3cc(Cl)ccc3-n3cc(C(F)(F)F)nn3)cc2=O)C(=O)Nc2ccc(C(=O)O)cc2N1` [Example 28, (S)-3-(4-(5-chloro-2-(4-(trifluoromethyl)-1H-1,2,3-triazol-1-yl)phenyl)-6-oxopyrimidin-1(6H)-yl)-2,9-dioxo-1,2,3,4,5,6,7,8,9,10-decahydrobenzo[b][1,4]diazacyclododecine-12-carboxylic acid], the inhibition constant Ki in test [1] amounted to 0.173 µM; in test [2] it was 11.6 µM.
